For experiment [1], the target named is T1, Carboxy-terminal domain RNA polymerase II polypeptide A small phosphatase 1 (Homo sapiens, UniProt Q9GZU7).
T1 sequence (Q9GZU7 whole entry): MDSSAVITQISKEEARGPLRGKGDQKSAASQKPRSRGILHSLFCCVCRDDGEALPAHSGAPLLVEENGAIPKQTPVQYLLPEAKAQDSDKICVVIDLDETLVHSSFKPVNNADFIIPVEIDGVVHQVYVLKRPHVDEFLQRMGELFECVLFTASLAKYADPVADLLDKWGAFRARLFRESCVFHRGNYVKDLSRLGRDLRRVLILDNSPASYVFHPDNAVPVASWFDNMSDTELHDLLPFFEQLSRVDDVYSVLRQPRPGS
In words: inhibitors of CTDSP1, concentration-response testing, biochemical assay, absorbance-based, actives from ultra-high-throughput screening (AID 540297). The class given is functional.

In another experiment the target is Genome polyprotein (dengue virus type 2, UniProt P29990). Briefly: Dengue-2 NS5 methyltransferase inhibitors, primary screen, biochemical, confirmation dose response (AID 588689). The class given is functional.
Chain of Genome polyprotein (P29990 2492-3391 limits assumed): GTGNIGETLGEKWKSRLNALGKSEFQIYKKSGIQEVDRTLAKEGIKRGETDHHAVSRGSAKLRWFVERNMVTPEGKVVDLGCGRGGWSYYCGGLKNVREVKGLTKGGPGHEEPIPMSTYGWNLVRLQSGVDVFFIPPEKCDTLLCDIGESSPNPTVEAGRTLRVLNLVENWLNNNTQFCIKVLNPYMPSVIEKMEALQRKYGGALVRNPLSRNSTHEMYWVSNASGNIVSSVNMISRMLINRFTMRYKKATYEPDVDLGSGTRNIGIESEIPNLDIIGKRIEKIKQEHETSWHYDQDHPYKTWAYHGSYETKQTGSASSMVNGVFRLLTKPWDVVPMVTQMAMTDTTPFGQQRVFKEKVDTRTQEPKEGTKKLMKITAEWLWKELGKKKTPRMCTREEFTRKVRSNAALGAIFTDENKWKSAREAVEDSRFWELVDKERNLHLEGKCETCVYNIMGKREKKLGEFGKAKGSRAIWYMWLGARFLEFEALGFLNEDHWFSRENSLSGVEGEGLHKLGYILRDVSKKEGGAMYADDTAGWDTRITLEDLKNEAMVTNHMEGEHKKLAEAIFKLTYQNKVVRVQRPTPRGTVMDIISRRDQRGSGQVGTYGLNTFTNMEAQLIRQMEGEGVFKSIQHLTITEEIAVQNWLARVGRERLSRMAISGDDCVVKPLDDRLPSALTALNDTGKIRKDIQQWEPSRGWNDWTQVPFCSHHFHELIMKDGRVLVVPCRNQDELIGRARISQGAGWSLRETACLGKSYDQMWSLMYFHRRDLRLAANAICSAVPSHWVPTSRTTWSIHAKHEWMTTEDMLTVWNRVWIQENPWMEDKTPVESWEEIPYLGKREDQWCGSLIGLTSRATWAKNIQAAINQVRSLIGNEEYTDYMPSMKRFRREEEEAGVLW
Experiment [2] in a line: IGROV1 ovarian cancer cell cytotoxicity, dose response, PAX8 inhibitor project, plate reader, dry powder samples (AID 743043). In kind it is functional, cell-based. Particulars: IGROV-1.
A further experiment addresses Paired box protein Pax-8 (Homo sapiens, UniProt Q06710). Briefly: inhibitors of PAX8-driven TPO luciferase reporter, dose response, RMG-I cells, cherry-pick (AID 687027).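 Note: luciferase reporter driven by Pax8 target thyroperoxidase promoter measured by SteadyGlo luminescence.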 The class given is functional, cell-based. (Reporter assays use an easily measured gene product as a stand-in for the process of interest.)
The target of experiment [3] is T2, DNA repair and recombination protein RAD54-like (Homo sapiens, UniProt Q92698).
T2 sequence (Q92698 whole entry): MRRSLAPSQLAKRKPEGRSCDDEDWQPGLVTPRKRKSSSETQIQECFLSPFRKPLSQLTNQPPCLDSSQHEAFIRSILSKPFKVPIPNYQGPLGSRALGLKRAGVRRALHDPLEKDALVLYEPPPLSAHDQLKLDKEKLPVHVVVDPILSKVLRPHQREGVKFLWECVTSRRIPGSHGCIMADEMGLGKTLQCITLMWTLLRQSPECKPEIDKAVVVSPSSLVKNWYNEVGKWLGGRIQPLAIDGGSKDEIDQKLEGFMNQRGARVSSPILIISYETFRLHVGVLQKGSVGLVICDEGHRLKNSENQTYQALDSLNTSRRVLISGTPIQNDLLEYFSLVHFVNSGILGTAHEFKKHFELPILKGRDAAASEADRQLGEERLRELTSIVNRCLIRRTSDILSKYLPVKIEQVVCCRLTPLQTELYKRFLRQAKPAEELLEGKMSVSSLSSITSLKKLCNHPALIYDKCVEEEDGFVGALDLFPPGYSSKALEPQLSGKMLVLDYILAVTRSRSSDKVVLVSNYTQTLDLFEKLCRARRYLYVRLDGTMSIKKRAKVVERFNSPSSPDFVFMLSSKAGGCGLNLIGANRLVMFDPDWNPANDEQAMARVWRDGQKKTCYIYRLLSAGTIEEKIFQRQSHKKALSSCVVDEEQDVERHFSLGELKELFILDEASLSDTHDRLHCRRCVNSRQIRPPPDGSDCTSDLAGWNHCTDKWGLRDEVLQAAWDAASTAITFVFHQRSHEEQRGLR
In words: inhibitors of human RAD54 branch migration, confirmation, biochemical, fluorescence, cherry-picked samples, dose series (AID 651657). In kind it is functional.

Experiment [4] has as its target T3, Fructose-bisphosphate aldolase (Mycobacterium tuberculosis, UniProt P9WQA3).
T3 sequence (P9WQA3 whole entry): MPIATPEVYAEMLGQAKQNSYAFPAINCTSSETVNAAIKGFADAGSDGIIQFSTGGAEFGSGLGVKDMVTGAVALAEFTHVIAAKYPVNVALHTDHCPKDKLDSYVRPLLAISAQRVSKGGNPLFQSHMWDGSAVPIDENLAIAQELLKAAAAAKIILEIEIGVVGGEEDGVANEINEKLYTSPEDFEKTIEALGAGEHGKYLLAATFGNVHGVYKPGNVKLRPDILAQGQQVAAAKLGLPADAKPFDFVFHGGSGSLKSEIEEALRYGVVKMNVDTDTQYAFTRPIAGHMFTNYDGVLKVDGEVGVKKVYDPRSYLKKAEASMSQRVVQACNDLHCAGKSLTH
Briefly: Fluorescence-based biochemical high throughput dose response assay for inhibitors of the fructose-bisphosphate aldolase (FBA) of M. tuberculosis. The class given is functional.

In experiment [5] the target is T4, DNA repair protein RAD52 homolog (Homo sapiens, UniProt P43351).
T4 sequence (P43351 whole entry): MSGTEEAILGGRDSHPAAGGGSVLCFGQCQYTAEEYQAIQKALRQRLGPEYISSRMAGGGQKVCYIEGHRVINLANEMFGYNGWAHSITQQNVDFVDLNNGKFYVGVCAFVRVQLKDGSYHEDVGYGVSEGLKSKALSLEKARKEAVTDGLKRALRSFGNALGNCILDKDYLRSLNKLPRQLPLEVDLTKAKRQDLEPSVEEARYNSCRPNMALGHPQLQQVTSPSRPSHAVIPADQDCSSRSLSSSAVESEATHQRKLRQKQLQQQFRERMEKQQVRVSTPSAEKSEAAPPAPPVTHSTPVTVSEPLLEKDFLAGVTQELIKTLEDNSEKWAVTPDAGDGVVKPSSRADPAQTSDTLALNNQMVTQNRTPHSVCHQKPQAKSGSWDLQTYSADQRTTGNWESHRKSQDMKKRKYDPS
In kind it is functional, biochemical.

Experiment [6] concerns Streptococcus sp. 'group A'. Briefly: growth inhibition of control SK(-) GAS strain, dose response, counter-screen for streptokinase expression inhibitor project, luminescence, kanamycin, BacTiterGlo, confirmation (AID 1900). In kind it is functional, organism-based.
In the next experiment the test system is INS1. In words: beta cell apoptosis inhibitors, cytokine rescue, dose response, luminescence, retest (AID 449756).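 Note: cell death triggered by IL-1 beta plus TNF-alpha plus IFN-gamma mixture; protective hits raise ATP signal compared with cytokine alone wells.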 In kind it is functional, cell-based. Conditions: ins1.
The nature of experiment [7]: Luminescence Cell-Based Dose Response HTS to Identify Inhibitors of 5'UTR Stem-Loop Driven Prion Protein mRNA Translation in H4 Neuroglioblastoma Cells. [Related pubchem assays: 1827 (Project Summary), 1813 (Primary HTS)]. In kind it is functional.
A short description of experiment [8]: HeLa cell cytotoxicity, dose response, cytotoxicity control for MgcRacGAP inhibitor project (AID 624300). In kind it is functional.
A short description of experiment [9]: inhibitors of SNCA 5'UTR-driven reporter translation, confirmation, H4 neuroglioma cells, luminescence (AID 1988). In kind it is functional, cell-based.
The nature of experiment [10]: inhibitors of intracellular T. cruzi replication, confirmation, NIH3T3 host cells, beta-gal luminescence (AID 2044).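 Note: intracellular parasites grown in NIH/3T3 mouse fibroblasts as host cells; luminescent beta-galactosidase reporter signal from transgenic T. cruzi replicating inside host cells; inhibitors lower the luminescence signal.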 The class given is functional, cell-based.
Experiment [11] can be described thus: inhibitors of firefly luciferase expression or activity, dose response, H4 neuroglioma cells, luminescence (AID 1990). In kind it is functional, cell-based.
A short description of experiment [12]: cytotoxicity toward NIH3T3 fibroblasts, dose response, counter-screen, cell-based, ATP luminescence, mouse fibroblasts (AID 2010).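 Note: cells exposed to compound for about 90 hours before reading.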 The class given is functional.
The nature of experiment [13]: nonselective inhibitors of cellular cAMP signaling, dose response, counter-screen for MC4R biased antagonist project, cell-based, TR-FRET cAMP detection (AID 602305).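 Note: U2OS cells stimulated with forskolin near its EC80 as the cAMP inducer; potency is for inhibition of forskolin-stimulated cAMP signaling.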 The class given is functional. Background: Counterscreens check selectivity or assay interference.
A further experiment concerns Streptococcus. In words: Group A Streptococcus viability loss, dose response, counter-screen for streptokinase expression inhibitor project, luminescence, BacTiterGlo (AID 1915).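 Note: potency for reduction of bacterial viability or growth.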 In kind it is functional, organism-based.

Active and inactive are the calls of the source.

Usually IC50 stands for the concentration at which inhibition is half-maximal. Broadly, the AC50 is the midpoint of the concentration-response curve, whichever way the signal moves. As usually defined, the EC50 is the midpoint of the concentration-response curve. By CC50 is commonly meant the concentration that lowers cell viability or growth by half.

Chain of Paired box protein Pax-8 (Q06710 whole entry): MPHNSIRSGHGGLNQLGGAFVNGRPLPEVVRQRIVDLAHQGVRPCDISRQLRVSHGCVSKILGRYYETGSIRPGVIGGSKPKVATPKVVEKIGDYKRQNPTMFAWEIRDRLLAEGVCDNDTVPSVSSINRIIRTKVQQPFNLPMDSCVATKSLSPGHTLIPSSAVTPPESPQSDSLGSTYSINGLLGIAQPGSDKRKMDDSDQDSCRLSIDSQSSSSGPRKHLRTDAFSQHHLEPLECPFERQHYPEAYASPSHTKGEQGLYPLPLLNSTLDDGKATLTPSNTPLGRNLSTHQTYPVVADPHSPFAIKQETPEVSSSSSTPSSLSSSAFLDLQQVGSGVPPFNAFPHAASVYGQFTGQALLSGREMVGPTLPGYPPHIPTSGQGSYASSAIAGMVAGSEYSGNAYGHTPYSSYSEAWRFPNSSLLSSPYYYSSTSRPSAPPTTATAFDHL

`O=C(O)CN1C(=O)/C(=C2\C(=O)N(Cc3ccccc3Cl)c3ccccc32)SC1=S`: the IC50 in experiment [1] was 2.61 µM (active); at Genome polyprotein, 28.2 µM (active).

Regarding `C[C@H](O)C#Cc1cnc2c(c1)C(=O)N([C@H](C)CO)C[C@@H](C)[C@@H](CN(C)Cc1ccc(-c3ccccc3)cc1)O2`, the AC50 was 25.6 µM (active) in [2] and 1.66 µM (active) at Paired box protein Pax-8.

Regarding `COc1ccc(Cl)c2sc(N(CCN(C)C)C(=O)C3=COCCO3)nc12`, the concentration at half-maximal activity (AC50) in experiment [3] is 38 µM (active).

Consider `Cc1nnsc1-c1nc2ccccc2[nH]1`, for which the IC50 in experiment [4] was 1.4 µM (active).

With `COc1ccc(-c2cc(NC=O)c3ncc(-c4cccc(C(=O)NCCN(C)C)c4)n3c2)cc1`, the AC50 in experiment [3] was 9.93 µM (active); in experiment [5], 2.81 µM (active).

As to `CC(C)(CNC(=O)c1cc(-c2ccc(Cl)s2)nc2ccccc12)N1CCOCC1`, in [4], the IC50 was 1.59 µM (active).

`Cn1c(-c2cccs2)nc2ccccc21`: the IC50 in [4] is 1.48 µM (active).

With `N=C(NCCCCCCNC(=N)NC(=N)Nc1ccc(Cl)cc1)NC(=N)Nc1ccc(Cl)cc1`, the EC50 in [6] is 0.517 µM (active); in [7], 18.2 µM (active); in experiment [9] it was 9.88 µM (active); in experiment [10], 0.332 µM (active); in experiment [11] it was 8.64 µM (active); in experiment [12], 7.82 µM (active). For the same compound, the EC50 in the experiment with Streptococcus is 2.09 µM (active). For the same compound, the AC50 in the experiment with INS1 is 4.27 µM (active). Further, the CC50 in experiment [8] is 37.9 µM (active). The IC50 in experiment [13] is 61.2 µM (inactive).

Values taken from ChEMBL document CHEMBL1201862, “PubChem BioAssay data set” (2004).
